Test results published in the Biogen ADME set (Fang et al. 2023).
Converted amounts (≈) assume the structure as drawn.

Settings: for aqueous solubility: pH 6.8

Row | Structure (SMILES) | MDR1-MDCK efflux ratio | intrinsic clearance, human liver microsomes | aqueous solubility | intrinsic clearance, rat liver microsomes
1 | CCN1CCOC(C(=O)N2CCC(c3cn[nH]c3)CC2)C1 (stereo unspecified) | 3.51 | ≤ 4.74 mL/min/kg |  | 
2 | COc1cccc(N2CCN(c3nc(C)cc(C)c3C#N)CC2)c1 | 0.519 |  | 0.9 µg/mL (≈ 2.79 µM) | 
3 | COc1cccc(CN2CCC(Cc3ccc(-c4cccnc4)cc3)(C(N)=O)CC2)c1 | 7.02 | 108 mL/min/kg | 70.6 µg/mL (≈ 170 µM) | 631 mL/min/kg
4 | Cc1noc(C)c1CC(=O)N1CCc2[nH]c3ccc(Br)cc3c2C1 | 5.07 | 166 mL/min/kg | 1.29 µg/mL (≈ 3.32 µM) | 497 mL/min/kg
5 | CCN1CCN(c2ccc(Nc3ncnc4sccc34)cc2)CC1 | 1.2 | ≤ 4.74 mL/min/kg |  | 61.9 mL/min/kg
6 | CS(=O)(=O)NC1CCCN(c2nc3ccccc3o2)C1 (stereo unspecified) | 4.21 | ≤ 4.74 mL/min/kg |  | 42.3 mL/min/kg
7 | Cc1ccc(F)cc1NC(=O)c1cnc2onc(C(C)C)c2c1 | 0.649 | 29.3 mL/min/kg | 42.4 µg/mL (≈ 135 µM) | 217 mL/min/kg
8 | Cc1oc(C)c(C(=O)N2CCNC(=O)C2)c1Br | 5.92 | ≤ 4.74 mL/min/kg | 72.2 µg/mL (≈ 240 µM) | ≤ 10.7 mL/min/kg
9 | Cc1cccc(NC(=O)CN(C)Cc2nc3ccc(Cl)cc3c(=O)[nH]2)c1C | 12.5 | 101 mL/min/kg |  | 1270 mL/min/kg
10 | O=C1CCCN1CCCN1CCC(n2c(=O)[nH]c3ccccc32)CC1 |  | ≤ 4.74 mL/min/kg | 15.9 µg/mL (≈ 46.4 µM) | 15.7 mL/min/kg
11 | O=C(NC1CCCCC1)C1CCN(c2ccncc2Cl)CC1 | 0.838 | 22.4 mL/min/kg | 22 µg/mL (≈ 68.4 µM) | 257 mL/min/kg
12 | Cc1cccc(C)c1OCC(=O)N(C)C1(C#N)CCC1 | 0.621 | 13.3 mL/min/kg | 56.1 µg/mL (≈ 206 µM) | 472 mL/min/kg
13 | CC(=O)NC1CCC(NCCSc2ccc(C)cc2)CC1 (stereo unspecified) | 10.8 | 64.4 mL/min/kg |  | 499 mL/min/kg
14 | O=C(Nc1cnc2ccccc2n1)c1ccncc1 | 0.578 | 6.67 mL/min/kg |  | 127 mL/min/kg
15 | COCc1cc(-c2nc(CCc3ccccc3)n[nH]2)ccc1OC | 2.29 | 70.4 mL/min/kg | 24.9 µg/mL (≈ 77.1 µM) | 1100 mL/min/kg
16 | Cc1c(Cl)cccc1NC(=O)C(C)N1CCCN(c2nccs2)CC1 (stereo unspecified) | 0.958 | 928 mL/min/kg | 48.2 µg/mL (≈ 127 µM) | 4390 mL/min/kg
17 | O=C(C1CC1)N1CCC(CNS(=O)(=O)N2CCCCCC2)CC1 | 15.2 | 40.4 mL/min/kg |  | 1320 mL/min/kg
18 | Cc1cc(C)c2ccc(C(=O)N3CCN(c4nc[nH]n4)CC3)cc2n1 | 70.8 | ≤ 4.74 mL/min/kg |  | 16.8 mL/min/kg
19 | N#CCC1(n2cc(-c3ncnc4[nH]ccc34)cn2)CNC1 |  |  | 32.6 µg/mL (≈ 117 µM) | 
20 | CN(Cc1ccc(CO)cc1)Cc1cc(F)c(F)c(F)c1 | 0.425 | 54 mL/min/kg |  | 371 mL/min/kg

Row | Structure (SMILES) | MDR1-MDCK efflux ratio | intrinsic clearance, human liver microsomes | aqueous solubility | intrinsic clearance, rat liver microsomes
21 | O=C(Nc1ccc(F)cc1F)N1CCn2c1nc1ccccc12 | 0.468 | 78.5 mL/min/kg | 6.1 µg/mL (≈ 19.4 µM) | 90.1 mL/min/kg
22 | Cn1ncc2cc(-c3ccnc4[nH]ccc34)ccc21 | 0.608 | 117 mL/min/kg | 4.67 µg/mL (≈ 18.8 µM) | 689 mL/min/kg
23 | CC(C)(C)C(=O)N1CCC(NS(C)(=O)=O)CC1 | 1.89 | ≤ 4.74 mL/min/kg | 56.9 µg/mL (≈ 217 µM) | ≤ 10.7 mL/min/kg
24 | CCc1nc(CC)n(Cc2nc(C)cs2)n1 | 0.797 | ≤ 4.74 mL/min/kg | 35.9 µg/mL (≈ 152 µM) | 39.8 mL/min/kg
25 | CCN(C)S(=O)(=O)N(C)Cc1cnc2ccccc2c1 | 0.658 | 15.1 mL/min/kg |  | 2320 mL/min/kg
26 | Cc1ccc(F)cc1CNc1cc(C(=O)N(C)C)ccn1 | 1.06 | 11.1 mL/min/kg | 47.4 µg/mL (≈ 165 µM) | 399 mL/min/kg
27 | COc1ccc(-c2csc3ncnc(Oc4ccc(C)nc4)c23)cc1 | 0.595 | 78.5 mL/min/kg | 7.81 µg/mL (≈ 22.4 µM) | 320 mL/min/kg
28 | Cn1nc(-c2cn(Cc3ccc(CO)cc3)nn2)c2c(Cl)cccc21 | 5.12 | 10 mL/min/kg | 19.2 µg/mL (≈ 54.3 µM) | 190 mL/min/kg
29 | C[C@H](Cn1nc2c(cc1=O)CCCCC2)NC(=O)Cc1cccs1 |  | 153 mL/min/kg |  | 817 mL/min/kg
30 | CN1CCN(Cc2noc(Cc3ccccc3)n2)c2ccccc21 | 0.641 | 341 mL/min/kg | 14.1 µg/mL (≈ 44 µM) | 2000 mL/min/kg
31 | Cc1noc(C2CCN(CC(N)=O)CC2)n1 |  | 9.99 mL/min/kg | 30.8 µg/mL (≈ 137 µM) | 29.7 mL/min/kg
32 | CNC(=O)c1ccc(-c2nnc(-c3cccc(C)c3)o2)cc1 |  |  | 0.21 µg/mL (≈ 0.716 µM) | 
33 | COc1ccc(CNC(=O)CCSc2nc3c(=O)n(C)c(=O)n(C)c3n2C)cc1 |  | 52 mL/min/kg |  | 247 mL/min/kg
34 | CN(C)C(=O)c1ccc(NC(=O)c2cccc(F)c2)cc1 | 0.927 | 9.98 mL/min/kg | 46.5 µg/mL (≈ 162 µM) | 69.2 mL/min/kg
35 | Cc1cc(C(F)(F)F)nc(N(C)Cc2c(C)noc2C)n1 |  | 91.7 mL/min/kg |  | 589 mL/min/kg
36 | c1ccc2c(c1)CCN(Cc1nnc3n1CCC3)C2 | 6.91 | ≤ 4.74 mL/min/kg | 35.3 µg/mL (≈ 139 µM) | 34.5 mL/min/kg
37 | O=C(Nc1ccccc1)Nc1ccc(OC(F)(F)F)cc1 | 0.328 |  | 0.8 µg/mL (≈ 2.7 µM) | 
38 | O=C(NN1CCOCC1)c1ccc(Cl)c(Cl)c1 | 0.691 | ≤ 4.74 mL/min/kg |  | ≤ 10.7 mL/min/kg
39 | Cn1ccc2c(C(=O)Nc3ncn(Cc4cccnc4)n3)cccc21 | 54.9 | ≤ 4.74 mL/min/kg | 42.5 µg/mL (≈ 128 µM) | 30.9 mL/min/kg
40 | COCC(C)(C)CNC(=O)C1(Cn2cccn2)CC1 |  | 13 mL/min/kg |  | 188 mL/min/kg

Row | Structure (SMILES) | MDR1-MDCK efflux ratio | intrinsic clearance, human liver microsomes | aqueous solubility | intrinsic clearance, rat liver microsomes
41 | CCCc1nnc2sc(-c3cc(C(C)C)nn3C)nn12 |  | 31.3 mL/min/kg | 17.9 µg/mL (≈ 61.5 µM) | 593 mL/min/kg
42 | NC(=O)c1cnn(Cc2cccc(F)c2)c1 |  | ≤ 4.74 mL/min/kg |  | ≤ 10.7 mL/min/kg
43 | CCCN(CC)c1ccc(C(=O)N2CCCN(C(C)=O)CC2)cc1 | 6.92 | 25.7 mL/min/kg | 48.4 µg/mL (≈ 146 µM) | 308 mL/min/kg
44 | O=C(Nc1ccc(F)cc1)c1cc(C2CC2)nn1-c1ccccc1 | 0.314 | 20.7 mL/min/kg | 4.11 µg/mL (≈ 12.8 µM) | 76.3 mL/min/kg
45 | Cc1cc(C)c(S(=O)(=O)Nc2ccc(N(C)C)cc2)c(C)c1-n1cnnn1 | 9.73 | 118 mL/min/kg | 2.73 µg/mL (≈ 7.06 µM) | 89.2 mL/min/kg
46 | O=C(NO)c1cnc(NC2(c3ccccc3)CC2)nc1 |  | ≤ 4.74 mL/min/kg |  | 17.4 mL/min/kg
47 | COCCOc1ccc(N2CCN(CCn3ncc4c3nc(N)n3nc(-c5ccco5)nc43)CC2)cc1 |  |  | 0.9 µg/mL (≈ 1.79 µM) | 
48 | Cc1nnc2ncc(-c3cccc(-c4ccnn4C)c3)cn12 | 0.929 | ≤ 4.74 mL/min/kg |  | 31 mL/min/kg
49 | CCC(=O)Nc1cccc(C(=O)N2CCN(C)Cc3ccccc32)c1 | 41.5 |  | 0.2 µg/mL (≈ 0.593 µM) | 
50 | OC1(c2cccnc2F)CCN(Cc2ccc(-c3ccc(F)cc3)o2)CC1 | 0.57 | 18.9 mL/min/kg |  | 170 mL/min/kg
51 | Cc1cc(N(C)C)nc(N(C)Cc2csc(C)n2)n1 | 0.632 | 30.6 mL/min/kg | 47.4 µg/mL (≈ 171 µM) | 681 mL/min/kg
52 | CCNc1ccnc(N(C)Cc2nc3ccccc3n2C)n1 | 1.28 | 29.5 mL/min/kg | 37 µg/mL (≈ 125 µM) | 434 mL/min/kg
53 | c1ccc(Nc2nc(N3CCOCC3)nc(N3CCOCC3)n2)cc1 | 0.502 | 22.8 mL/min/kg |  | 48.3 mL/min/kg
54 | C/C=C/CC(=O)N1CCC(c2cc(Cc3ccccc3)n[nH]2)CC1 | 2.41 | 52 mL/min/kg | 24.1 µg/mL (≈ 74.5 µM) | 771 mL/min/kg
55 | Nc1nc(N)c2c(Cl)c(Br)ccc2n1 | 0.574 | 7.36 mL/min/kg | 24.6 µg/mL (≈ 90 µM) | 84.7 mL/min/kg
56 | Cn1c(C(=O)N2CCN(CCc3ccccc3)C(=O)C2)cc(=O)n(C)c1=O | 8.33 | ≤ 4.74 mL/min/kg | 59.7 µg/mL (≈ 161 µM) | 31.7 mL/min/kg
57 | O=C(c1cccnc1)N1CCCC(c2cccc(-c3cccc(Cl)c3)n2)C1 (stereo unspecified) | 0.905 | 397 mL/min/kg | 36 µg/mL (≈ 95.1 µM) | 1270 mL/min/kg
58 | CC(C)CN1CC[C@H](c2nc3ccc(C#N)cc3[nH]2)C1 | 1.46 | 6.69 mL/min/kg | 36.7 µg/mL (≈ 137 µM) | 76.3 mL/min/kg
59 | O=C(CCCOc1ccccc1)N1CCCC1 | 0.631 | 10.4 mL/min/kg | 30.5 µg/mL (≈ 131 µM) | 295 mL/min/kg
